According to paper PMC4546427, “Stereoselective Regulation of P-gp Activity by Clausenamide Enantiomers in Caco-2, KB/KBv and Brain Microvessel Endothelial Cells” (PLoS ONE, 2015):
“And” between values parts separate entries of the source, which are not always exact repeats. Identical values can stand only once.

What was measured:
[1] = tested on: P-gp; test: P-gp expression in KB cells: Western blots; type: cell-based, Human; conditions: 5 μmol/L, 24 h, normalized to GAPDH
Protocol: The sensitive, non-induced KB cells on 6-well plates were grown to 80%–90% confluence and incubated with the following agents for 24 h at 37°C and 5% CO2: vehicle, (−)CLA (1 or 5 μmol/L), (+)CLA (1 or 5 μmol/L), or verapamil (100 μmol/L). The cells were washed 3 times with ice-cold PBS (pH 7.4) and were lysed with 80 μL of lysis buffer described above. Lysates were frozen with liquid nitrogen, thawed in water at 37°C three times and centrifuged at 15,000 ×g for 10 min. The protein concentration of the supernatant was determined by Lowry’s method with bovine serum albumin as the standard. Proteins (48 μg) were separated by SDS-PAGE on a 10% separating gel and 4% stacking gel, and were transferred onto Immobilon-P membranes. The transferred proteins were treated with a blocking buffer (5% non-fat dried milk and 0.02% NP-40 in PBS) and then incubated with P-gp or GAPDH antibodies (at a 1:100 dilution) or HRP-conjugated secondary antibodies (1:1000 dilution) at 37°C for 1 h, respectively. The protein bands were visualized with enhanced chemiluminescence according to the manufacturer’s instructions. The density of the bands was quantified by scanning densitometry (LAS-3000 Imaging System, Fujifilm, Japan; and Kodak Digital Science 1D Analysis Software, Rochester, NY, USA) and was expressed as normalized values to GAPDH.

[2] = set-up: method as in PMID 18655159; conditions: cited from earlier work
[3] = tested on: P-gp; test: Rh123 accumulation in RBMECs; type: cell-based, rat; conditions: RBMEC; for Increase in Rh123 accumulation relative to verapamil alone: co-treatment CLA 5 μmol/L with verapamil 200 μmol/L; for Percentage of rhodamine 123 accumulation relative to vehicle treatment: positive = increase
Protocol: The experimental programs in this part were approved by the Animal Care and Welfare Committee in our institute. Animals were treated in accordance with national/international guidelines. Primary cultures of brain microvessel endothelial cells were prepared from Sprague—Dawley rats (10–12 days old; Beijing Vital River Company, Beijing, China), as previously described by Qian et al.[21]. The gray matter of animals was taken out and minced into small pieces of approximately 1 mm^3 in ice-cold MEM medium, then dissociated by using 2 mg/mL collagenase containing DNase at a final concentration of 10.5 μg/ml on a shaker for 20 min at 37°C. The cells were pelleted by centrifugation(1000 rpm, 10 min, 4°C) and digested once again according to the above protocol. Then 20% dextran(Mr 40,000) was added to the cells for differential centrifugation at 2000 rpm for 10 min. The cells were re-suspended in complete MEM medium and passed through 74-μm stainless steel mesh. Obtained RBMECs were seeded on 1% (w/v) gelatin-coated culture flasks and cultivated in complete medium (MEM, 20% FBS, 0.9 mg/mL glutamate, 10 mmol/L hepes, 100 ng/mL bFGF, 100 μg/mL heparin sulphate, 100 units/mL penicillin, 100 μg/mL streptomycin sulphate and 50 units/mL amphotericin B) at 37°C and 5% CO2, which was refreshed with complete medium 4 h after seeding to eliminate non-endothelial cells. A final concentration of 2 μg/mL of puromycin was added for 7 h to further purify the cultured cells. The purity of RBMECs was examined by their morphological characteristics using a phase-contrast microscope, and immunocytochemistry of a specific marker, factor VIII-associated antigen, with a rabbit anti-factor VIII polyclonal antibody and FITC-conjugated goat anti-rabbit factor VIII secondary antibody by immunofluorescence microscopy (Olympus IX 70-S1Z2, Olympus Optical CO. Ltd., Japan). The P-gp expression in cultured cells was determined by Western blot analyses using a mouse monoclonal antibody raised against amino acids 1040–1280 of P-gp. When the cultures in the flasks reached 80%–90% confluence, the purified RBMECs were passaged by a brief treatment with trypsin (0.25%, w/v) and EDTA (0.02%, w/v) solution and seeded onto 6-well plates at a density of 5 × 10^5 cells/well; after 2–3 days, incubated with the following agents for 2 h under culture conditions (37°C, 5% CO2 and humidified air): vehicle; (−)CLA (1 or 5 μmol/L); (+)CLA (1 or 5 μmol/L); verapamil (200 μmol/L); or individual enantiomer (1 or 5 μmol/L) plus verapamil (200 μmol/L). In the end, Rh123 (5 μmol/L) was added to the whole wells. The cell incubation, solubilisation and Rh123 accumulation were performed according to the same method for Caco-2 cells described above.
Primary cultures of brain microvessel endothelial cells were prepared from Sprague–Dawley rats (10–12 days old; Beijing Vital River Company, Beijing, China), as previously described by Qian et al.[21]. Animals were anesthetized by intraperitoneal injection of 20% ethyl carbamate at dose of 1g/kg[35], and sterilized by immersion in 75% alcohol solution for 2 min. The gray matter of these animals was taken out and minced into small pieces of approximately 1 mm^3 in ice-cold MEM medium, then dissociated by using 2 mg/mL collagenase containing DNase at a final concentration of 10.5 μg/ml on a shaker for 20 min at 37°C. The cells were pelleted by centrifugation(1000 rpm, 10 min, 4°C) and digested once again according to the above protocol. Then 20% dextran(Mr 40,000) was added to the cells for differential centrifugation at 2000 rpm for 10 min. The cells were re-suspended in complete MEM medium and passed through 74-μm stainless steel mesh. […]

[4] = high dose, CLA 5 μmol/L, Rh123 5 μmol/L, 2 h
[5] = low dose, CLA 1 μmol/L, Rh123 5 μmol/L, 2 h

SMILES | P-gp expression upregulated relative to vehicle control [1] [%] | AUC0–∞ in target tissues (hippocampus, cortex and cerebellum), comparison of enantiomers [2] | Decrease of Rh123 accumulation relative to vehicle control ([3]; CLA 1 μmol/L, Rh123 5 μmol/L, 2 h) [%] | Increase in Rh123 accumulation relative to verapamil alone [3] [%] | Decrease in Rh123 accumulation relative to verapamil alone ([3]; co-treatment of verapamil 200 μmol/L with CLA 1 μmol/L) [%] | Percentage of rhodamine 123 accumulation relative to vehicle treatment [3, 4] | Percentage of rhodamine 123 accumulation relative to vehicle treatment [3, 5] | P-gp expression downregulated relative to vehicle control [1] [%] | Amount that entered into rat brain, comparison of enantiomers ([2]; 15 min after oral administration, P < 0.001) | Rh123 accumulation relative to verapamil alone (in words) ([3]; verapamil 200 μmol/L plus CLA 1 μmol/L)
CN1C(=O)[C@H](O)[C@@H](c2ccccc2)[C@H]1[C@H](O)c1ccccc1 [(+)CLA, 3R,4S,5S,6R-CLA] | 54.5 | greater values for AUC0–∞ than did (−)CLA | 20.0 | 18.5 | 26.5 | 41.1% and 41.13% | -20.04% | – | – | –
CN1C(=O)[C@@H](O)[C@H](c2ccccc2)[C@@H]1[C@@H](O)c1ccccc1 [(−)CLA, 3S, 4R, 5R, 6S-clausenamide] | – | – | – | 24.5 | – | 58.46% | 20.0% and 20.04% | 15.9 | significantly greater than that of the (+)-isomer | slightly increased trend
